Here are results for 32 molecules from the Kinase Knowledgebase extract (Sharma et al. 2016).

In the assay the target is CDK2 (UniProt P24941). Kind of assay: Enzyme Assay.

In the case of `CCN(CC)c1cccc(NC(=O)Nc2csc(-c3ccncc3)n2)n1`, the half-maximal inhibitory concentration (IC50) was under 50 µM.

In turn, `NC(=O)c1ccc(NC(=O)Nc2csc(-c3ccncc3)n2)nc1` came in with an IC50 of under 50 µM. The value for `CN1CCN(c2cccc(NC(=O)Nc3csc(-c4ccncc4)n3)n2)CC1` was under 50 µM; that for `O=C(Nc1csc(-c2ccncc2)n1)Nc1cc2ccccc2c(Br)n1` was under 50 µM; that for `O=C(Nc1csc(-c2ccncc2)n1)Nc1nccs1` was under 50 µM. Under `O=C(Nc1csc(-c2ccncc2)n1)Nc1cccc2[nH]cnc12` stands under 50 µM; under `CCCc1cccc(NC(=O)Nc2csc(-c3ccncc3)n2)n1`, under 50 µM. `O=C(Nc1cccc(N2CCOCC2)n1)Nc1csc(-c2ccncc2)n1`: the IC50 was under 50 µM. The value for `O=C(Nc1csc(-c2cccnc2)n1)Nc1nccs1` was under 50 µM; that for `Cc1cccc(NC(=O)Nc2csc(-c3cccnc3)n2)n1` was under 50 µM; that for `CCc1cccc(NC(=O)Nc2csc(-c3ccncc3)n2)n1` was under 50 µM. On to `Cc1cccc(NC(=O)Nc2csc(-c3ccncc3)n2)n1`, for which the IC50 is under 50 µM. Under `CCN(CC)Cc1cccc(NC(=O)Nc2csc(-c3ccncc3)n2)n1` stands under 50 µM; under `Cc1cccnc1NC(=O)Nc1csc(-c2ccncc2)n1`, under 50 µM; under `O=C(Nc1ccc(C(F)(F)F)cn1)Nc1csc(-c2ccncc2)n1`, under 50 µM. Under `O=C(Nc1csc(-c2cccnc2)n1)Nc1nc(-c2ccccc2)cs1` stands under 50 µM. Under `Cc1ccc(NC(=O)Nc2csc(-c3ccncc3)n2)nc1` stands under 50 µM; under `O=C(Nc1cccc(NCCCN2CCOCC2)n1)Nc1csc(-c2ccncc2)n1`, under 50 µM; under `CCCc1cccc(NC(=O)Nc2cccc(-c3cccnc3)c2)n1`, under 50 µM. Regarding `CN(C)CCNc1cccc(NC(=O)Nc2csc(-c3ccncc3)n2)n1`, the 50% inhibitory concentration (IC50) is under 50 µM. `O=C(Nc1ccccn1)Nc1csc(-c2cccnc2)n1` returned a concentration for half-maximal inhibition (IC50) of under 50 µM. The value for `O=C(Nc1csc(-c2ccncc2)n1)Nc1csc(-c2ccncc2)n1` was under 50 µM; that for `O=C(Nc1csc(-c2cccnc2)n1)Nc1nc(-c2cccnc2)cs1` was under 50 µM; that for `O=C(Nc1ccccn1)Nc1csc(-c2ccccn2)n1` was under 50 µM. On to `O=C(Nc1csc(-c2cccnc2)n1)Nc1csc(-c2cccnc2)n1`, for which the half-inhibitory concentration (IC50) is under 50 µM. The value for `O=C(Nc1cccc(N2CCCCC2)n1)Nc1csc(-c2ccncc2)n1` was under 50 µM; that for `CCCc1cccc(NC(=O)Nc2csc(-c3ccnc(CC)c3)n2)n1` was under 50 µM. Under `O=C(Nc1ccccn1)Nc1csc(-c2ccncc2)n1` stands under 50 µM.

For the molecule `O=C(Nc1csc(-c2ccncc2)n1)Nc1ccc2ccccc2n1`, the IC50 is under 50 µM. Take `CN(C(=O)Nc1csc(-c2ccncc2)n1)c1ccccn1`: the 50% inhibitory concentration (IC50) was under 50 µM.

Consider `O=C(Nc1csc(-c2ccncc2)n1)Nc1nc(-c2cccnc2)cs1`, for which the IC50 is under 50 µM. As to `CCc1ccnc(NC(=O)Nc2csc(-c3ccncc3)n2)c1`, the half-maximal inhibitory concentration (IC50) is under 50 µM.

A word on the IC50: it is the concentration that gives 50% inhibition. The low end stands for greater potency in that assay, the high end for weaker potency in that assay.
